The test system of series [1] is MES-SA/Dx5 cells. The experiment in a line: Percentage of live cells by fluorescent dye staining (DiB / EthD-1) and microscopy. In kind it is cell-based, human. The procedure: (§1) In the present embodiment, cancer cell lines with (MES-SA/Dx5 cells; abbreviated as “Dx5” from the BCRC of Food Industry Research and Development Institute (FIRDI), Taiwan) and without (MES-SA cells from the BCRC of FIRDI) anti-cancer drug resistance were separately treated with various concentrations (0, 2.5, 5.0, 7.5, 10.0, 12.5, 15.0 μg ml^−1) of doxorubicin (doxorubicin hydrochloride; Enzo Life Sciences, CH) for 48 hours. The percentage of live cells was then evaluated by a combination of fluorescent dye staining and microscopic observation. Briefly, the drug-treated Dx5 cells were stained with the DiB cytoplasmic membrane labelling dye (Biotium, CA USA) and EthD-1 fluorescent dye (ethidium homodimer-1; Thermo Fisher Scientific, MA USA) to identify the living (blue staining), and dead (red staining) Dx5 cells, respectively. The drug-treated MES-SA cells were stained with Calcein-AM and EthD-1 fluorescent dyes (LIVE/DEAD1 Viability/Cytotoxicity Kit L-3224; Thermo Fisher Scientific, MA USA) to identify the living (green staining) and dead (red staining) cells, respectively. All the assays were performed according to the manufacturer's instructions. This was followed by microscopic observation using a fluorescence microscope (Zoom 160, OPTEM, USA). The overall viability of the cancer cells was then evaluated by determining the number of live cells relative to that of whole cells.

The subject of series [2] is MES-SA/Dx5 cells. The series is described as follows: MTT assay cell viability. In kind it is cell-based. To be noted: Homo sapiens, 5.0 μg ml^−1 doxorubicin, 48 hours. The procedure:
(§2) Cell viability was also evaluated by assaying the intercellular dehydrogenase activity of cells using the commonly used MTT (thiazolyl blue tetrazolium bromide; Sigma Aldrich, MO USA) assay. Briefly, the cancer cells (i.e., MES-SA and Dx5 cells) were separately treated with doxorubicin as mentioned above. The drug-treated cancer cells were then assayed for viability (%) based on the manufacturer's instructions for the MTT assay kit.

For series [3], the system named is MES-SA cells. The experiment in a line: Percentage of live cells by fluorescent dye staining (Calcein-AM / EthD-1) and microscopy. In kind it is cell-based, human. The method, then:
as §1

Series [4] has as its system MES-SA cells. The experiment in a line: MTT assay cell viability. To be noted: 48 hours. In kind it is cell-based, human. The method, then: as §2
Setting [5] is: 5.0 μg ml^−1 doxorubicin for 48 hours.
Setting [6] is: 5.0 μg ml^−1 doxorubicin, 48 hours.

In the case of `COc1cccc2c1C(=O)c1c(O)c3c(c(O)c1C2=O)C[C@@](O)(C(=O)CO)C[C@@H]3O[C@H]1C[C@H](N)[C@H](O)[C@H](C)O1` [doxorubicin], the dead cell percentage in series [1] (setting [5]) is given as 4.5%; in series [3] (setting [5]), 73.9%. The “percentage of live cells” value in series [1] (setting [6]) is recorded as 95.5%; in series [3] (setting [6]), 26.1%. Also, the viability (commonly the share of living cells, or the viability signal relative to a control) at 5 µg/mL in series [2] came out at 73.5%; in series [4] (Homo sapiens, 5.0 μg ml^−1 doxorubicin), 2.2%. The “cell viability (%) (MTT)” value in series [4] (various concentrations of doxorubicin) is given as ~0%.

Values taken from US11698357B2, “Method for screening, isolating and purifying analytes” (CHANG GUNG UNIVERSITY, priority 2019, dated 2023).
